Measured values: patent US11339120B2, “Phenyl derivatives as cannabinoid receptor 2 agonists” (priority 2015, dated 2022)
Read-outs that look alike come from different tables or passages of the source.

Experiments:
[1] = biological target: T1, human CB2 receptors (Homo sapiens, UniProt P34972); experiment: functional cAMP assay, CHO cells expressing human CB2; assay type: cell-based
T1 construct: expressed in transfected cells; host or cells: CHO cells
Method: (§1) CHO cells expressing human CB1 or CB2 receptors are seeded 17-24 hours prior to the experiment 50.000 cells per well in a black 96 well plate with flat clear bottom (Corning Costar #3904) in DMEM (Invitrogen No. 31331), 1×HT supplement, with 10% fetal calf serum and incubated at 5% CO2 and 37° C. in a humidified incubator. The growth medium was exchanged with Krebs Ringer Bicarbonate buffer with 1 mM IBMX and incubated at 30° C. for 30 min. Compounds were added to a final assay volume of 100 μl and incubated for 30 min at 30° C. Using the cAMP-Nano-TRF detection kit the assay (Roche Diagnostics) was stopped by the addition of 50 μl lysis reagent (Tris, NaCl, 1.5% Triton X100, 2.5% NP40, 10% NaN3) and 50 μl detection solutions (20 μM mAb Alexa700-cAMP 1:1, and 48 μM Ruthenium-2-AHA-cAMP) and shaken for 2 h at room temperature. The time-resolved energy transfer is measured by a TRF reader (Evotec Technologies GmbH), equipped with a ND:YAG laser as excitation source. The plate is measured twice with the excitation at 355 nm and at the emission with a delay of 100 ns and a gate of 100 ns, total exposure time 10 s at 730 (bandwidth 30 nm) or 645 nm (bandwidth 75 nm), respectively. The FRET signal is calculated as follows: FRET=T730-Alexa730-P(T645-B645) with P=Ru730-B730/Ru645-B645, where T730 is the test well measured at 730 nM, T645 is the test well measured at 645 nm, B730 and B645 are the buffer controls at 730 nm and 645 nm, respectively. cAMP content is determined from the function of a standard curve spanning from 10 μM to 0.13 nM cAMP.
(§2) EC50 values were determined using Activity Base analysis (ID Business Solution, Limited). The EC50 values for a wide range of cannabinoid agonists generated from this assay were in agreement with the values published in the scientific literature.

[2] = biological target: T2, human CB1 receptors (Homo sapiens, UniProt P21554); experiment: functional cAMP assay, CHO cells expressing human CB1; assay type: cell-based
T2 construct: expressed in transfected cells; host or cells: CHO cells
Method: as §1, §2

[3] = functional cAMP assay, CHO cells expressing human CB2, read-out: Human CB2 EC50

T1 sequence (P34972 whole entry): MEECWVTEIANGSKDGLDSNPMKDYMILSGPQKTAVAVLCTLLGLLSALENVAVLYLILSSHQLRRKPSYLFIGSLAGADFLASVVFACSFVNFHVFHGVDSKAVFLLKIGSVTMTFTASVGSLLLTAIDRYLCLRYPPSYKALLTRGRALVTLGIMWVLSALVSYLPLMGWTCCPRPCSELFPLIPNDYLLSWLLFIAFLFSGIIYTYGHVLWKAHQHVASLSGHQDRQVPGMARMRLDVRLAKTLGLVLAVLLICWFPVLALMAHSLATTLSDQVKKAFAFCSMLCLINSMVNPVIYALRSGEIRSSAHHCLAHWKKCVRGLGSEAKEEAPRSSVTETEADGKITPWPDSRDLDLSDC
T2 sequence (P21554 whole entry): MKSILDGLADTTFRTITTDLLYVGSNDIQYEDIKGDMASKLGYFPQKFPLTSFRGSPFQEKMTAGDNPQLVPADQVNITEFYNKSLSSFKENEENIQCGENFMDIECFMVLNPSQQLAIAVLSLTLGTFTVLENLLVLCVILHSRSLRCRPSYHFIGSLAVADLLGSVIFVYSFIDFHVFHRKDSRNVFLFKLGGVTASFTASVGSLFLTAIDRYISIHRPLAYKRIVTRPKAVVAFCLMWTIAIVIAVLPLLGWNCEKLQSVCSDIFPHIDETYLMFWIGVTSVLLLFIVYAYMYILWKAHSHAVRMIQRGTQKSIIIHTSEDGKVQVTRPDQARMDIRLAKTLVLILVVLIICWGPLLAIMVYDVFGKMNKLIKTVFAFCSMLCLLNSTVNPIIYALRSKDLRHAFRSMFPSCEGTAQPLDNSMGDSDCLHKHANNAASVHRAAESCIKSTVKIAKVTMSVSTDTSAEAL

SMILES | EC50 [1] [nM] | EC50 [2] [nM] | EC50 [1, 3] [nM]
C[C@@](CC(N)=O)(NC(=O)c1ccc(C2CC2)c(OCC(F)(F)F)c1)C1CC1 (single isomer, unassigned) [Example 35, (−)-N-[4-Amino-2-cyclopropyl-4-oxobutan-2-yl]-4-cyclopropyl-3-(2,2,2-trifluoroethoxy)benzamide] | 8.56 | > 10000 | 
C[C@](CC(N)=O)(NC(=O)c1ccc(C2CC2)c(-c2ccc(F)nc2)c1)C1CC1 [Example 52, N-[(2R)-4-Amino-2-cyclopropyl-4-oxobutan-2-yl]-4-cyclopropyl-3-(6-fluoropyridin-3-yl)benzamide] | 9.76 | > 10000 | 
NC(=O)[C@@H]1CC(F)(F)CN1C(=O)c1ccc(C2CC2)c(-c2ccc(F)nc2)c1 [Example 57, 1-[4-Cyclopropyl-3-(6-fluoropyridin-3-yl)benzoyl]-4,4-difluoro-L-prolinamide] |  | > 10000 | 274
CC(C)(CO)NC(=O)c1ccc(C2CC2)c(OCC2CC2)c1 [Example 5, 4-Cyclopropyl-3-(cyclopropylmethoxy)-N-(1-hydroxy-2-methylpropan-2-yl)benzamide] |  | > 10000 | 130
CC(C)(C)c1nc(-c2ccc(C3CC3)c(OCCF)c2)no1 [Example 30, 5-tert-Butyl-3-[4-cyclopropyl-3-(2-fluoroethoxy)phenyl]-1,2,4-oxadiazole] | 38.3 | > 10000 | 
NC(=O)CC1(NC(=O)c2ccc(C3CC3)c(OCC(F)(F)F)c2)CS(=O)(=O)C1 [Example 27, N-[3-(2-Amino-2-oxoethyl)-1,1-dioxothietan-3-yl]-4-cyclopropyl-3-(2,2,2-trifluoroethoxy)benzamide] | 98 | > 10000 | 
Cc1nc(C(NC(=O)c2ccc(C3CC3)c(OC(C)C)c2)C2(C)COC2)no1 (stereo not drawn) [Example 68, 4-Cyclopropyl-N-[(5-methyl-1,2,4-oxadiazol-3-yl)(3-methyloxetan-3-yl)methyl]-3-[(propan-2-yl)oxy]benzamide] |  | > 10000 | 264
CC(C)Oc1cc(C(=O)N[C@@](C)(CC(N)=O)C2CC2)ccc1C1CC1 [Example 43, N-[(2S)-4-Amino-2-cyclopropyl-4-oxobutan-2-yl]-4-cyclopropyl-3-[(propan-2-yl)oxy]benzamide] | 30.8 | > 10000 | 
CNC(=O)[C@H](CC(C)C)NC(=O)c1ccc(N2CC(F)(F)C2)c(OCC2CC2)c1 [Example 12, N^2-[3-(cyclopropylmethoxy)-4-(3,3-difluoroazetidin-1-yl)benzoyl]-N-methyl-L-leucinamide] | 66.4 | > 10000 | 
NC(=O)[C@@H]1CC(F)(F)CN1C(=O)c1ccc(C2CC2)c(OCC(F)(F)F)c1 [Example 42, 1-[4-Cyclopropyl-3-(2,2,2-trifluoroethoxy)benzoyl]-4,4-difluoro-L-prolinamide] |  | > 10000 | 134
Cc1nc(C(C)(C)NC(=O)c2ccc(N3CC(F)(F)C3)c(OCC3CC3)c2)no1 [Example 10, 3-(Cyclopropylmethoxy)-4-(3,3-difluoroazetidin-1-yl)-N-[2-(5-methyl-1,2,4-oxadiazol-3-yl)propan-2-yl]benzamide] | 32.9 | > 10000 | 
Cc1nc([C@](C)(CC2CC2)NC(=O)c2ccc(C3CC3)c(N3CCC(F)(F)C3)c2)no1 [Example 64, 4-Cyclopropyl-N-[(2S)-1-cyclopropyl-2-(5-methyl-1,2,4-oxadiazol-3-yl)propan-2-yl]-3-(3,3-difluoropyrrolidin-1-yl)benzamide] | 1.08 | > 10000 | 
C[C@@](CC(N)=O)(NC(=O)c1ccc(C2CC2)c(N2CCC(F)(F)C2)c1)C1CC1 [Example 62, N-[(2S)-4-Amino-2-cyclopropyl-4-oxobutan-2-yl]-4-cyclopropyl-3-(3,3-difluoropyrrolidin-1-yl)benzamide] | 25.9 | > 10000 | 
Cc1nc([C@@](C)(CC2CC2)NC(=O)c2ccc(C3CC3)c(OCC(F)F)c2)no1 [Example 31, (−)-4-Cyclopropyl-N-[1-cyclopropyl-2-(5-methyl-1,2,4-oxadiazol-3-yl)propan-2-yl]-3-(2,2-difluoroethoxy)benzamide] | 16.6 | > 10000 | 
NC(=O)CC1(NC(=O)c2ccc(C3CC3)c(OCC3CC3)c2)COC1 [Example 15, N-[3-(2-Amino-2-oxoethyl)oxetan-3-yl]-4-cyclopropyl-3-(cyclopropylmethoxy)benzamide] | 34.1 | > 10000 | 
Cc1nc([C@@](C)(CS(C)(=O)=O)NC(=O)c2ccc(C3CC3)c(OCC(F)(F)F)c2)no1 [Example 29, 4-Cyclopropyl-N-[(2S)-1-(methanesulfonyl)-2-(5-methyl-1,2,4-oxadiazol-3-yl)propan-2-yl]-3-(2,2,2-trifluoroethoxy)benzamide] | 149 | > 10000 | 
C[C@](CC(N)=O)(NC(=O)c1ccc(C2CC2)c(OCCF)c1)C1CC1 [Example 45, N-[(2R)-4-Amino-2-cyclopropyl-4-oxobutan-2-yl]-4-cyclopropyl-3-(2-fluoroethoxy)benzamide] | 7.42 | > 10000 | 
Cc1nc([C@@](C)(CS(C)(=O)=O)NC(=O)c2ccc(C3CC3)c(OCC3CC3)c2)no1 [Example 20, 4-Cyclopropyl-3-(cyclopropylmethoxy)-N-[(2S)-1-(methanesulfonyl)-2-(5-methyl-1,2,4-oxadiazol-3-yl)propan-2-yl]benzamide] | 31.3 | > 10000 | 
CNC(=O)[C@H](CC(C)C)NC(=O)c1ccc(C2CC2)c(OCC2CC2)c1 [Example 19, N^2-[4-cyclopropyl-3-(cyclopropylmethoxy)benzoyl]-N-methyl-L-leucinamide] | 19.6 | > 10000 | 
Cc1nc([C@](C)(CC2CC2)NC(=O)c2ccc(C3CC3)c(-c3ccnn3C)c2)no1 [Example 59, 4-Cyclopropyl-N-[(2S)-1-cyclopropyl-2-(5-methyl-1,2,4-oxadiazol-3-yl)propan-2-yl]-3-(1-methyl-1H-pyrazol-5-yl)benzamide] |  | > 10000 | 282
CCC(CC)(NC(=O)c1ccc(C2CC2)c(OCC2CC2)c1)C(N)=O [Example 18, N-(3-Carbamoylpentan-3-yl)-4-cyclopropyl-3-(cyclopropylmethoxy)benzamide] |  | > 10000 | 233
CC(C)(C)c1nc(-c2ccc(C3CC3)c(OCC(F)F)c2)no1 [Example 24, 5-tert-Butyl-3-[4-cyclopropyl-3-(2,2-difluoroethoxy)phenyl]-1,2,4-oxadiazole] | 15.5 | > 10000 | 
NC(=O)[C@@H]1CC(F)(F)CN1C(=O)c1ccc(C2CC2)c(OCCF)c1 [Example 40, 1-[4-Cyclopropyl-3-(2-fluoroethoxy)benzoyl]-4,4-difluoro-L-prolinamide] |  | > 10000 | 216
CC(C)Oc1cc(C(=O)N[C@](C)(CC(N)=O)C2CC2)ccc1C1CC1 [Example 44, N-[(2R)-4-Amino-2-cyclopropyl-4-oxobutan-2-yl]-4-cyclopropyl-3-[(propan-2-yl)oxy]benzamide] | 2.91 | 1090 | 
CC1(C(CC(N)=O)NC(=O)c2ccc(C3CC3)c(OCC(F)(F)F)c2)COC1 (stereo not drawn) [Example 69, N-[3-Amino-1-(3-methyloxetan-3-yl)-3-oxopropyl]-4-cyclopropyl-3-(2,2,2-trifluoroethoxy)benzamide] |  | > 10000 | 1180
Cc1nc([C@@](C)(CC2CC2)NC(=O)c2ccc(C3CC3)c(OC(C)C)c2)no1 [Example 49, 4-Cyclopropyl-N-[(2R)-1-cyclopropyl-2-(5-methyl-1,2,4-oxadiazol-3-yl)propan-2-yl]-3-[(propan-2-yl)oxy]benzamide] | 42.1 | > 10000 | 
Cc1ccc(C(=O)N[C@@H](CC(C)C)C(N)=O)cc1OCC1CC1 [Example 1, N-[(2S)-1-amino-4-methyl-1-oxopentan-2-yl]-3-(cyclopropylmethoxy)-4-methylbenzamide] |  | > 10000 | 136
CCOC(=O)C(CC)(CC)NC(=O)c1ccc(C2CC2)c(OCC2CC2)c1 [Example 7, Ethyl 2-[4-cyclopropyl-3-(cyclopropylmethoxy)benzamido]-2-ethylbutanoate] | 1.44 | > 10000 | 
Cc1nc([C@@](C)(CC2CC2)NC(=O)c2ccc(C3CC3)c(-c3ccc(F)nc3)c2)no1 [Example 50, 4-Cyclopropyl-N-[(2R)-1-cyclopropyl-2-(5-methyl-1,2,4-oxadiazol-3-yl)propan-2-yl]-3-(6-fluoropyridin-3-yl)benzamide] | 53.7 | > 10000 | 
Cc1nc(C(C)(C)NC(=O)c2ccc(C)c(OCC3CC3)c2)no1 [Example 2, 3-(Cyclopropylmethoxy)-4-methyl-N-[2-(5-methyl-1,2,4-oxadiazol-3-yl)propan-2-yl]benzamide] |  | > 10000 | 492
